Source: patent US20090149432A1, “METHODS FOR ADMINISTERING CORTICOSTEROID FORMULATIONS” (priority 2007, published 2009)
Where two headings read alike, the source gives them in different places.

Legend:
[1] = tested on: hypothalamus-pituitary-adrenal (HPA) axis; experiment: ACTH-induced plasma cortisol levels in children after six weeks of treatment; type: in vivo, human (children); conditions: doses of Tables 3 and 4
From the text: An important measure of systemic exposure to corticosteroids is the level of endogenous cortisols in the blood. Excess exogenous corticosteroids will suppress natural production of cortisols due to the suppression of the adrenal cortex. […] Both these changes are statistically insignificant.

[2] = Plasma budesonide pharmacokinetics in asthmatic children, twice a day nebulization over six weeks; type: in vivo, human (asthmatic children); conditions: for AUC0-inf (geometric mean): nebulized; for AUC0-inf (geometric mean) / Cmax (geometric mean) / Cmax at 42 days / Cmax / half-life at 42 days / Tmax at 42 days / half-life / Tmax: asthmatic children; for Cmax at 42 days / Cmax / half-life at 42 days / Tmax at 42 days / half-life / Tmax / Tmax at 6 weeks: human, plasma, inhaled; for Cmax at 42 days / Cmax: read-out: Cmax (geometric mean); for half-life at 42 days / half-life: read-out: T1/2 (geometric mean); for Tmax at 42 days / Tmax: read-out: Tmax (geometric mean) (converted); for Tmax at 6 weeks: read-out: Tmax averaged over 6 weeks (converted)
Protocol: The budesonide was administered twice a day by a nebulizer for six weeks (42 days). In one subset, budesonide was administered at a dose of 0.25 mg. In the other subset, budesonide was administered at a dose of 0.135 mg.
Tmaxs averaged about 4.3 minutes (SD±0.63 minutes) for the two dosage strengths and time of treatment that ranged from zero to six weeks. […] The Cmaxs and AUCs (area under the curve) obtained for the two different dosage strengths were below levels that would induce side effects due to systemic exposure. […] Murphy et al.'s dosing regimen of 1.0 mg twice a day (bid) was the same as that for Pulmicort Respules when the pharmacokinetics of Pulmicort Respules was being assessed by Astrazeneca (Pharmacokinetics section of Pulmicort Respules label insert).

AUC0-inf (geometric mean) ([2]; 0.135 mg dose twice a day, Day 42): 22,071 pg-min/mL
AUC0-inf (geometric mean) ([2]; 0.135 mg dose twice a day, First Dose): 10,238 pg-min/mL
change of AUC0-inf ([2]; 0.135 mg dose, by week six of dosing): more than doubled
change of Cmax ([2]; 0.135 mg dose, initial dosing to week six): more than tripling
Cmax (geometric mean) ([2]; 0.135 mg dose, Day 42): 0.6721 ng/mL
Cmax (geometric mean) ([2]; 0.135 mg dose, First Dose): 0.2144 ng/mL
Cmax to AUC0-inf ratio ([2]; 0.135 mg dose, standard deviation less than approximately 0.006 min^−1): approximately 0.02 min^−1
AUC0-inf (geometric mean) ([2]; 0.25 mg dose twice a day, Day 42): 33,116 pg-min/mL
AUC0-inf (geometric mean) ([2]; 0.25 mg dose twice a day, Day 42, listed as budesonide): about 33,116 pg-min/mL
AUC0-inf (geometric mean) ([2]; 0.25 mg dose twice a day, First Dose): 20,849 pg-min/mL
AUC0-inf (geometric mean) ([2]; 0.25 mg dose twice a day, First Dose, listed as budesonide): about 20,849 pg-min/mL
Cmax to AUC0-inf ratio ([2]; 0.25 mg dose, standard deviation less than approximately 0.007 min^−1): approximately 0.025 min^−1
change of Cmax ([2]; 0.25 mg, after 42 days (six weeks) of dosing): at least double
increase of AUC0-inf, times its value at first dose ([2]; 0.25 mg, repeat dosing for six weeks): about 1.6 times
Cmax at 42 days ([2]; 0.135 mg, Day 42): ~0.672 ng/mL
Cmax ([2]; 0.135 mg, First Dose): ~0.214 ng/mL
Cmax at 42 days ([2]; 0.25 mg, Day 42): 0.746 ng/mL
Cmax ([2]; 0.25 mg, First Dose): 0.321 ng/mL
half-life at 42 days ([2]; 0.135 mg dose, Day 42): 71.3 min
Tmax at 42 days ([2]; 0.135 mg dose, Day 42): 4.4 min
half-life ([2]; 0.135 mg dose, First Dose): 42.1 min
Tmax ([2]; 0.135 mg dose, First Dose): 4.4 min
Tmax at 6 weeks ([2]; 0.135 mg dose): 4.4 min
half-life at 42 days ([2]; 0.25 mg dose, Day 42): 75.7 min
Tmax at 42 days ([2]; 0.25 mg dose, Day 42): 5 min
half-life ([2]; 0.25 mg dose, First Dose): 155 min
Tmax ([2]; 0.25 mg dose, First Dose): 3.3 min
Tmax at 6 weeks ([2]; 0.25 mg dose): 4.1 min
Structure (SMILES): CCCC1O[C@@H]2C[C@H]3[C@@H]4CCC5=CC(=O)C=C[C@]5(C)[C@H]4[C@@H](O)C[C@]3(C)[C@]2(C(=O)CO)O1 (some centres unmarked) [Budesonide, budesonide]
HPA axis suppression [1]: no evidence of hypothalamus-pituitary-adrenal (HPA) axis suppression
